These are literature values, as cited in US4866036A, “Dipeptidyl 5-0,6-0-acyl-2-amino-2-deoxy-D-glucofuranose compositions and methods of use in aids-immunocompromised human hosts” (priority 1987, dated 1989).

The conditions of data set [1]: in vivo.
The conditions of data set [2]: human, in vivo.
For data set [3] the following is noted: human, in vivo. This is another data set of the same source.
Data set [4] deals with HIV reverse transcriptase (Human immunodeficiency virus type 1 group M subtype B, UniProt P04585).
The subject of data set [5] is reverse transcriptase in several retroviruses. Conditions: in vitro.

`Cc1cn([C@H]2C[C@H](N=[N+]=[N-])[C@@H](CO)O2)c(=O)[nH]c1=O` [Azidothymidine, 3'-azido 3'-deoxythymidine]: in data set [1], the “half-life in the body” value is on record as “relatively short half-life” and the “penetration of the central nervous system” value was “effectively penetrates central nervous system”.

Regarding `CC(C)(N1CC1C#N)N1CC1C(N)=O` (centres unmarked) [Azimexon], the “clinical effect in AIDS or ARC patients” value in data set [2] was “improvements in symptoms and immune function in patients with ARC but not AIDS”. The “toxicity / adverse effects in patients” value in data set [3] is “mild hemolysis”.

For the molecule `Cc1ccc(C(=O)Nc2ccc(S(=O)(=O)O)c3cc(S(=O)(=O)O)cc(S(=O)(=O)O)c23)cc1NC(=O)c1cccc(NC(=O)Nc2cccc(C(=O)Nc3cc(C(=O)Nc4ccc(S(=O)(=O)O)c5cc(S(=O)(=O)O)cc(S(=O)(=O)O)c45)ccc3C)c2)c1` [Suramin], in data set [4], the “HIV reverse transcriptase activity” value is given as “Potent inhibitor”.

With α-Interferon, in the data set on HIV, the “growth of HIV” value is recorded as “Checks the growth of HIV in vitro”. Also, the “clinical effect in AIDS or ARC patients” value in data set [2] was “induced tumor regression in some AIDS related Kaposi's sarcoma cases”.

As for `NC(=O)c1ncn([C@@H]2O[C@H](CO)[C@@H](O)[C@H]2O)n1` [Ribavirin, 1β-D ribofuranosyl 1,2,4-triazole 3-carboxamide], the “clinical effect in AIDS or ARC patients” value in data set [2] is “inhibited viral replication and improved immune function”.

On to “ammonium 21-tungsto-9 antimoniate [HPA 23]”, for which the “growth of HIV” value with HIV is “some tendency to check the growth of HIV”. Besides, in data set [5], the “reverse transcriptase in several retroviruses” value was “Inhibits reverse transcriptase”. Besides, in data set [2], the “clinical effect in AIDS or ARC patients” value is reported as “no therapeutic benefit has been documented”.

As to `CO[C@H]1/C=C/O[C@@]2(C)Oc3c(C)c(O)c4c(c3C2=O)C2=NC3(CCN(CC(C)C)CC3)NC2=C(NC(=O)/C(C)=C\C=C\[C@H](C)[C@H](O)[C@@H](C)[C@@H](O)[C@@H](C)[C@H](OC(C)=O)[C@@H]1C)C4=O` [Ansamycin, rifabutin], the “clinical effect in AIDS or ARC patients” value in data set [2] is given as “some efficacy”.

In the case of `CC(C)(S)[C@@H](N)C(=O)O` [D-Penicillamine, 3-mercapto-D-valine], the “clinical effect in AIDS or ARC patients” value in data set [2] is “suppressed the virus”. In addition, the “toxicity / adverse effects in patients” value in data set [3] is “temporarily depressed T cell levels”.

With `CC(=O)Nc1ccc(C(=O)O)cc1.CC(=O)Nc1ccc(C(=O)O)cc1.CC(=O)Nc1ccc(C(=O)O)cc1.CC(O)CN(C)C.CC(O)CN(C)C.CC(O)CN(C)C.O=c1[nH]cnc2c1ncn2[C@@H]1O[C@H](CO)[C@@H](O)[C@H]1O` [Inosine pranobex], in data set [2], the “clinical effect in AIDS or ARC patients” value was “improve immune function in ARC patients”.

Consider `O=C(O)P(=O)(O)O` [Foscarnet, trisodium phosphonoformate], for which the “toxicity / adverse effects in patients” value in data set [3] is recorded as “serious side effects”. In addition, in data set [4], the “HIV reverse transcriptase activity” value is given as “Inhibits HIV reverse transcriptase activity in vitro”.
